Data on six compounds can be found in US5585105A, “Utilization of derivatives of 2,5-dihydroxyphenylcarboxylic acids, their homologs, and their salts in preparation of a cosmetic or dermatological composition with a depigmenting action” (L'Oreal, priority 1991, dated 1996).

One series concerns fungal tyrosinase. In words: in vitro tyrosinase activity inhibition test. The format is biochemical. The conditions noted are these: decrease in maximum dopachrome formed (OD 475 nm, plateau) vs without inhibitor; inhibitor 50 mol. % relative to tyrosine; pH 6.5, 25° C. The source says: According to this test, the quantity of dopachrome formed during the chain of reactions by which tyrosine is converted into melanins is monitored by visible spectrometry at 475 nm. These reactions are catalyzed in vitro by fungal tyrosinase in the presence of a reducing cosubstrate (for example L-dopa in a small quantity) to initiate the hydroxylation reaction of L-tyrosine into L-dopa. The L-dopa is then oxidized catalytically into dopaquinone and then into dopachrome, an intermediate formed prior to the nonenzymatic oxidation reactions that lead to formation of melanins.
The inhibitor concentrations are established at 50 mol. % relative to the tyrosine concentration in the reaction medium.
The effect of inhibition is expressed by the decrease in the maximum quantity of dopachrome formed (optical density value at 475 nm read from the plateau of the curve) relative to the quantity obtained in the absence of inhibitor.
A--0.1 M phosphate buffer, pH=6.5 (Tween 20, 1%)
B--Stock solution of L-tyrosine, 2×10^-3 M in A
C--Stock solution of L-dopa, 10^-4 M in A
D--Stock solution of fungal tyrosinase, 2400 units/ml, in A
E--Stock solution of inhibitor, 10^-2 M in A (solutions C and D must be prepared on the day of the experiment).
reference cell: 3 ml of A
homogenize and equilibrate at 25° C.
mix rapidly and observe kinetics by measuring absorbance at 475 nm as a function of time.

Another series has as its system melanocyte. Conditions: background statement; cited from earlier work.

Turning to `COC(=O)Cc1cc(O)c(C)cc1O`, the “% change in maximum dopachrome vs no inhibitor” value (shortened to “% change … vs no inhibitor”) in the series on fungal tyrosinase is given as -87%.

As for `Cc1cc(O)c(CC(=O)O)cc1O`, the “% change … vs no inhibitor” value in the series with fungal tyrosinase was -66%.

Regarding `Cc1c(O)cc(CC(=O)O)c(O)c1C`, the “% change … vs no inhibitor” value with fungal tyrosinase is reported as -59%.

Consider `Cc1cc(O)c(CCC(=O)O)cc1O`, for which the “% change … vs no inhibitor” value in the series on fungal tyrosinase is -64%.

As for `O=C(O)CCc1cc(O)ccc1O`, in the series with fungal tyrosinase, the “% change … vs no inhibitor” value is recorded as -42%.

Consider `Oc1ccc(O)cc1` [hydroquinone, reference compound], for which the “irritation and cytotoxicity to the melanocyte” value in the series with melanocyte was “particularly irritating and cytotoxic to the melanocyte”. For the same compound, the “% change … vs no inhibitor” value in the series with fungal tyrosinase is reported as -33%.
